This passage reports IC50 results from PMC8277517, “Anticolon Cancer Properties of Pyrazole Derivatives Acting through Xanthine Oxidase Inhibition” (Journal of Oncology, 2021).

The subject of assay [1] is HCT-116 colorectal carcinoma cell line. In words: Sulforhodamine B (SRB) cytotoxicity assay, HCT-116. The note with it: Homo sapiens, 72 h. Format: cell-based. As to the method: (§1) Human hepatocellular carcinoma cell line (HepG-2, ATCC HB-8065), colorectal adenocarcinoma cell line (HCT-116, ATCC CCL-247), and breast adenocarcinoma cell line (MCF-7, ATCC HTB-22) were obtained from the American type culture collection (ATCC). Cells were maintained in RPMI-1640 supplemented with (100 μg/ml) penicillin (100 units/ml) and heat-inactivated fetal bovine serum (10% v/v) in a humidified, 5% (v/v) CO2 atmosphere at 37°C [13].
(§2) The cytotoxicity of the different compounds was tested against human tumor cells using the sulforhodamine B assay (SRB). Healthy growing cells were cultured in a 96-well tissue culture plate (3000 cells/well) for 24 hours to allow attachment of the cells to the plate before treatment with the tested compounds. […] Triplicate wells were incubated with different concentrations for 72 h and subsequently fixed with TCA (10% w/v) for 1 h at 4°C. […] After drying overnight, the SRB-stained cells were dissolved with tris-HCl and the color intensity was measured in a microplate reader at 540 nm.
(§3) The SRB assay is the “gold-standard” assay and is extensively used in the high-throughput screening program at the National Cancer Institute (NCI), USA. The SRB uses an aminoxanthene dye, which readily stains the cells through binding with the basic amino acids of cellular proteins. […]
Background: Sulforhodamine B stains cellular protein and so reports cell mass.

Assay [2] concerns HepG2 hepatocellular carcinoma cell line. As to the kind of experiment: Sulforhodamine B (SRB) cytotoxicity assay, HepG2. The note with it: Homo sapiens, 72 h. It is filed as cell-based. The procedure: as §1, §2, §3
In assay [3] the test system is MCF-7 breast adenocarcinoma cell line. In words: Sulforhodamine B (SRB) cytotoxicity assay, MCF-7. Format: cell-based. The note with it: Homo sapiens, MCF7, 72 h. The procedure:
as §1, §2, §3

The test system of assay [4] is MCF-7, HepG2, and HCT-116 cell lines. More on the design: method as in doi:10.2174/1570178617666200320104923. The note with it: read-out: IC50 inhibition of cell proliferation (range over cell lines); cited from earlier work.
The test system of assay [5] is HCT-116 colorectal carcinoma cell line. More on the design: method as in doi:10.2174/1570178617666200320104923. To be noted: Figure 1 design strategy, earlier lead; cited from earlier work.
The test system of assay [6] is MCF-7 breast adenocarcinoma cell line. More on the design: method as in doi:10.2174/1570178617666200320104923. To be noted: Figure 1 design strategy, earlier lead; cited from earlier work.

Where two headings read alike, the source gives them in different places.

`COc1cccc2c1C(=O)c1c(O)c3c(c(O)c1C2=O)C[C@@](O)(C(=O)CO)C[C@@H]3O[C@H]1C[C@H](N)[C@H](O)[C@H](C)O1` [Doxorubicin]: the IC50 in assay [1] worked out at 4.4 ± 0.04 µM; in assay [2], 3.9 ± 0.06 µM; in assay [3], 4.7 ± 0.08 µM.

`CC1=NN(C(=O)c2ccncc2)C(=O)C1=NNc1ccc([N+](=O)[O-])cc1` [1-isonicotinoyl-3-methyl-4-[2-(4-nitrophenyl)hydrazono]-2-pyrazolin-5-one]: the IC50 in assay [4] was 200 to 3400 nM.

For `COc1ccc(/N=N/c2c(C)nn(C(=O)c3ccncc3)c2C)cc1` [Aryldiazenyl pyrazoles (ADP)], the IC50 in assay [5] is 61.3 µM.

Take `CC1=NN(C(=O)c2ccncc2)C(=O)/C1=N/Nc1ccc([N+](=O)[O-])cc1` [Arylhydrazono pyrazoles (AHP)]: in assay [6], the IC50 was 200 nM.
